Source: EP3521435A1, “A HIGH STRINGENCY SELECTION SYSTEM FOR PROTEIN EXPRESSION IN PROLINE-AUXOTROPHIC CELLS” (Bayer AG, priority 2018, dated 2019)

How the values were obtained:
Type in all cases: cell-based, Chinese hamster
CHO-K1 cells [1] = assay: Cell viability post-transfection of transfected cell populations under selection conditions
Procedure: (§1) To efficiently test the impact of different procedures on improving selection stringency, experimental testing in stable cell populations was performed. As test molecules, enhanced green fluorescent protein (GFP) as well as a human IgG1 were chosen. CHO-K1 cells adapted to growth in suspension in defined medium were obtained from SAFC and cultivated in EX-CELL CD CHO Fusion medium (SAFC 14365C). Custom-made EX-CELL CD CHO Fusion medium without L-Proline (Pro) and without L-Ornithine (Orn) ("proline-free medium") was obtained from SAFC. The expression vector system was based on modified versions of "CET 1019 AS-puro-SceI" and "CET 1019 AD-puro-SceI" for GFP and human IgG1, respectively, from Merck-Millipore, containing the Puromycin selection marker (Puromycin N-acetyl-transferase) known to exert a high selection stringency. To minimize variations in cell populations derived from using different transfections or different vectors, the first series of experiments were conducted using vectors into which a P5CS expression cassette was cloned upstream of a UCOE element, in addition to the Puromycin selection marker present downstream of a gene of interest. This way, it was possible to pool different transfections using the same vector to obtain a common starting point, and split the mixture according to different selection conditions, minimizing any variations that are not due to selection conditions themselves. Expression of long and short isoform of murine P5CS (Protein: Delta-1-pyrroline-5-carboxylate synthase; Gene: Aldh18a1; UniProtKB accession number: Q9Z110-1 & Q9Z110-2) was driven by a SV40 promoter. A SV40 polyadenylation sequence was used at the 3' end of the gene. More details can be found in Table 1. Typically, CHO cells were cultivated in EX-CELL CD CHO Fusion medium containing 6 mM GlutaMAX (Thermo Fisher, 35050-38) ("CD-Fusion medium") at 37 °C with 5% CO2. Cells were grown to logarithmic phase under shaking conditions for transfections. 1e7 cells/cuvette were transfected using nucleofection (Amaxa Nucleofector II, following the manufacturer's recommendations) with 5 µg of linearized DNA. After transfection, cells were taken up in 1 ml medium and transferred into 1 well of a 6 well microtiter plate (MTP) already containing 1 ml medium. The cells were incubated for 24 h without shaking, after which 9 ml medium were added and cells were washed (either in standard or proline-free medium). Multiple transfections were pooled, if applicable. Cells were adjusted to 2e5 viable cells/ml and 10 ml were transferred to T-25 flasks. Reference cell populations were selected using 10 µg/ml Puromycin in CD-Fusion medium. For P5CS-based selection, EX-CELL CD CHO Fusion medium (custom-made, SAFC) containing 6 mM GlutaMAX without proline and without ornithine was used ("proline-free" or "CD-Fusion w/o Pro" medium), with or without additional selection pressure.
(§2) Cell viability of the different populations was monitored over time. As soon as cell populations appeared to recover from selection pressure, cells were transferred to Shake Flask or TubeSpins for expansion in suspension under shaking conditions. Subsequently, stable cell populations transfected with IgG were seeded at 2e5 viable cells/ml for batch fermentation without selection pressure (i.e. standard CD-Fusion medium containing proline and no other selective agents). The cells were cultivated for 5-10 days, viable cell densities and productivity were monitored over time. IgG titers were determined using Poros A-HPLC method. Typically, final batch titers were recorded at a time point at which majority of cultures had around 70% viability. Stable cell populations transfected with GFP vector were subjected to analysis by flow cytometry using Guava easyCyte 8HT Benchtop Flow Cytometer (Millipore). 250 µl of cell culture were transferred to 96 MTP and washed with PBS. Dead cells were excluded from analysis using propidium iodide (PI). […]

CHO-K1 cells [2] = assay: Flow cytometric analysis of GFP expression (MFI, high fluorescing cells) in stably selected cell populations
Procedure: as §1, §2

CHO-K1 cells [3] = assay: Batch fermentation in shake flasks of human IgG1 expressing stable cell populations (Poros A-HPLC titer, viable cell density, viability); conditions: human IgG1, pJF1577, non-selecting conditions
Procedure: as §1, §2

[4] = day 20 post-transfection, pJF1556, CD-Fusion w/o Pro + 0.1 mM A2C
[5] = day 20 post-transfection, pJF1556, CD-Fusion w/o Pro + 0.1 mM A2C + 10 µg/ml Puromycin
[6] = day 20 post-transfection, pJF1556, CD-Fusion w/o Pro + 0.25 mM A2C

## O=C(O)[C@@H]1CCN1 [A2C, L-Azetidine-2-carboxylic acid]
CHO-K1 cells [1]; MOCK, CD-Fusion w/o Pro + 0.5 mM A2C + 10 µg/ml Puromycin
  Viability on day 13 post-transfection: 15%
CHO-K1 cells [1]; pJF1556, CD-Fusion w/o Pro + 0.1 mM A2C
  Viability on day 13 post-transfection: 85%
CHO-K1 cells [1]; pJF1556, CD-Fusion w/o Pro + 0.1 mM A2C + 10 µg/ml Puromycin
  Viability on day 13 post-transfection: 62%
CHO-K1 cells [1]; pJF1556, CD-Fusion w/o Pro + 0.25 mM A2C
  Viability on day 13 post-transfection: 70%
CHO-K1 cells [1]; pJF1556, CD-Fusion w/o Pro + 0.25 mM A2C + 10 µg/ml Puromycin
  Viability on day 13 post-transfection: 22%
CHO-K1 cells [1]; pJF1556, CD-Fusion w/o Pro + 0.5 mM A2C
  Viability on day 13 post-transfection: 21%
CHO-K1 cells [1]; pJF1556, CD-Fusion w/o Pro + 0.5 mM A2C + 10 µg/ml Puromycin
  Viability on day 13 post-transfection: 21%
CHO-K1 cells [2]; [4]
  Frequency of high fluorescing cells: 7.1%
  Median Fluorescence Intensity (MFI) (yellow): 5743
CHO-K1 cells [2]; [5]
  Frequency of high fluorescing cells: 13.6%
  Median Fluorescence Intensity (MFI) (yellow): 9448
CHO-K1 cells [2]; [6]
  Frequency of high fluorescing cells: 7.1%
  Median Fluorescence Intensity (MFI) (yellow): 7578
CHO-K1 cells [3]; selected in CD-Fusion w/o Pro + 0.1 mM A2C + 10 µg/ml Puromycin
  Batch titer day 7: 82 mg/L
CHO-K1 cells [3]; selected in CD-Fusion w/o Pro + 0.1 mM A2C
  Batch titer day 7: 135 mg/L
CHO-K1 cells [3]; selected in CD-Fusion w/o Pro + 0.25 mM A2C + 10 µg/ml Puromycin
  Batch titer day 7: 145 mg/L
CHO-K1 cells [3]; selected in CD-Fusion w/o Pro + 0.25 mM A2C
  Batch titer day 7: 166 mg/L
CHO-K1 cells [3]; selected in CD-Fusion w/o Pro + 0.5 mM A2C + 10 µg/ml Puromycin
  Batch titer day 7: 34 mg/L
CHO-K1 cells [3]; selected in CD-Fusion w/o Pro + 0.5 mM A2C
  Batch titer day 7: 166 mg/L

## O=C(O)[C@@H]1C[C@H](O)CN1 [cis-4-Hydroxy-L-Proline]
CHO-K1 cells [1]; pJF1555, CD-Fusion w/o Pro + 0.25 mM cis-4-Hydroxy-L-Proline
  Viability on day 12 post-transfection: 89%
CHO-K1 cells [1]; pJF1555, CD-Fusion w/o Pro + 0.5 mM cis-4-Hydroxy-L-Proline
  Viability on day 12 post-transfection: 88%
CHO-K1 cells [1]; pJF1555, CD-Fusion w/o Pro + 1 mM cis-4-Hydroxy-L-Proline
  Viability on day 12 post-transfection: 65%
CHO-K1 cells [1]; pJF1555, CD-Fusion w/o Pro + 2.5 mM cis-4-Hydroxy-L-Proline
  Viability on day 12 post-transfection: 13%
CHO-K1 cells [1]; pJF1555, CD-Fusion w/o Pro + 5 mM cis-4-Hydroxy-L-Proline
  Viability on day 12 post-transfection: 13%
CHO-K1 cells [1]; pJF1555, CD-Fusion w/o Pro + 10 mM cis-4-Hydroxy-L-Proline
  Viability on day 12 post-transfection: 20%
CHO-K1 cells [1]; pJF1555, proline-free medium, Table 8
  concentration at which recovery kinetics were affected: ≥ 1 mM
CHO-K1 cells [2]; day 15 post-transfection, pJF1555, CD-Fusion w/o Pro + 0.25 mM cis-4-Hydroxy-L-Proline
  Frequency of high fluorescing cells: 3.3%
CHO-K1 cells [2]; day 15 post-transfection, pJF1555, CD-Fusion w/o Pro + 0.5 mM cis-4-Hydroxy-L-Proline
  Frequency of high fluorescing cells: 1.7%
CHO-K1 cells [2]; day 15 post-transfection, pJF1555, CD-Fusion w/o Pro + 2.5 mM cis-4-Hydroxy-L-Proline
  Frequency of high fluorescing cells: 1.4%
CHO-K1 cells [2]; day 15 post-transfection, pJF1555, CD-Fusion w/o Pro + 5 mM cis-4-Hydroxy-L-Proline
  Frequency of high fluorescing cells: 0.0%
CHO-K1 cells [2]; day 15 post-transfection, pJF1555, CD-Fusion w/o Pro + 10 mM cis-4-Hydroxy-L-Proline
  Frequency of high fluorescing cells: 0.0%
